Where “and” joins values, the source holds several entries; their conditions need not be identical. Equal values may be shown once.

Data set [1] deals with RPMI 8226 multiple myeloma cells. The experiment in a line: MTT cell survival assay, RPMI 8226. In kind it is cell-based, human. The following applies: 48 hours. Here is the method:
Cells were cultured and assayed in DMEM (SKBR3; human breast cancer cells), L15 (SW480; human colon cancer cells) or RPMI […] (RPMI 8226; human multiple myeloma cells) supplemented with heat-denatured 10% FBS and penicillin/streptomycin at 37° C., 0% (SW480) or 5% CO2 (SKBR3 and RPMI 8226), 95% humidity. The antitumor activities of these agents were measured in cells (6.25×10^4 cells/well) cultured overnight in 24-well plates (SKBR3 and SW480; BD Biosciences) or 12 mm×7.5 mm culture tubes (RPMI 8226; BD Biosciences) in complete media. […] Two naïve control wells were included as a control for 100% survival. Cell survival was determined using a MTT (3-(4,5-dimethylthiazol-2-yl)-2,5-diphenyltetrazolium bromide) assay adapted from a previously described assay. Cells were incubated with MTT (500 μg/ml) for 75 minutes at 37° C., 0% or 5% CO2, 95% humidity, removing the media and dissolving the tetrazolium crystals in isopropanol. […] The antitumor effects of IB-MECA alone were determined as % Survivability=(A560-570 nm of chemotherapeutic vehicle+IB-MECA)/(mean A560-570 nm of the naïve control wells)×100. The LD50 of each chemotherapeutic agent+IB-MECA or its vehicle was calculated using three-parameter non-linear analysis using % Survivability=(A560-570 nm of chemotherapeutic+IB-MECA or its vehicle)/(mean A560-570 nm chemotherapeutic vehicle+vehicle of IB-MECA)×100. […]

For data set [2] the following is noted: subjects receiving the drug; cited from earlier work.
Data set [3] relates to paclitaxel-induced neuropathic pain. The experiment in a line: Paclitaxel-induced neuropathic pain (mechano-allodynia, mechano-hyperalgesia). The format is in vivo, rats.
Data set [4] relates to A3ARs. The settings on record: cited from earlier work.
Data set [5] has as its system CCI of the sciatic nerve (mechano-allodynia). Nature of the data set: CCI model of neuropathic pain, mechano-allodynia (von Frey PWT). In kind it is in vivo, mice. The settings on record: for reversal of mechano-allodynia in ipsilateral paws: single dose D7, IB-MECA 0.2-2, CI-IB-MECA 0.6, MRS1898 0.5 μmol/kg i.p., morphine 0.11-35 s.c., gabapentin 18-584 i.p., amitriptyline 3-191 μmol/kg oral. The protocol: CCI model of neuropathic pain. CCI to the sciatic nerve of the left hind leg in mice was performed under general anaesthesia using the well-characterized Bennett model. Briefly, mice (weighing 25-30 g at the time of surgery) were anesthetized with 3% isoflurane/100% O2 inhalation and maintained on 2% isoflurane/100% O2 for the duration of surgery. The left thigh was shaved, scrubbed with Nolvasan® and a small incision (1-1.5 cm in length) was made in the middle of the lateral aspect of the left thigh to expose the sciatic nerve. The nerve was loosely ligated around the entire diameter of the nerve at three distinct sites (spaced 1 mm apart) using silk sutures (6.0). The surgical site was closed with a single muscle suture and a skin clip. Pilot studies established that under our experimental conditions peak mechano-allodynia develops by day 5-day 7 (D5-D7) following CCI. Test substances or their vehicles were given subcutaneously (s.c.), intraperitoneally (i.p.) or orally by gavage (0.1 ml) at peak mechano-allodynia (D7).
Behavioral testing. […] The plantar aspect of hindpaws were probed three times with calibrated von Frey filaments (Stoelting, mice: 0.07-2.00 grams; rats: 0.407-26 grams) according to the “up-and-down” method. […] Briefly, each rat was placed in a Plexiglas chamber (28×40×35-cm, wire mesh floor) and after its acclimation, a servo-controlled mechanical stimulus was applied to the plantar surface that exerted a progressively increasing punctate pressure up to 50 grams within 10 seconds. Mechanical threshold was assessed three times at each time point to yield a mean value, reported as PWT (grams). […] Mechano-hyperalgesia was assessed in rats by the Randall and Sellitto paw pressure test using an analgesiometer (Ugo Basile). The nociceptive threshold was defined as the force (grams) at which the rat withdrew its paw (cut off set at 250 grams).
Determining ED50 values. Dose response data were curve-fitted using the least sum of square method by a normalized 4-parameter, variable slope non-linear analysis of the % Reversal of Mechano-allodynia in CCI and % Prevention of Mechano-allodynia or Mechano-hyperalgesia in CIPN using GraphPad Prism (Release 5.03, GraphPad Software, Inc.) from which the ED50 was determined and reported with the 95% confidence interval (95% CI). In the CCI model, the % Reversal of Mechano-allodynia=(PWT1h−PWTD7)/(PWTD0−PWTD7)×100, where PWTD0=Paw Withdrawal Threshold (g) at D0, PWT1h=Paw Withdrawal Threshold (g) at 1 hour after the administration of IB-MECA, gabapentin, amitriptyline, or combinations of IB-MECA with gabapentin or amitriptyline, and PWTD7=Paw Withdrawal Threshold (grams) at D7 prior to drug administration.
Statistical Analysis. Data are expressed as mean±SD for n animals. Behavioral data were analyzed by two-way repeated measures ANOVA with Bonferroni comparisons (full time course studies) or one-way ANOVA Dunnett's comparisons (1 hour behavioral data). The dose response curves were compared to a globally fitted curve using the extra sum-of-squares F-test comparisons to determine whether the data represented distinct curves between treatments. Significant differences were defined at a P<0.05. All statistical analysis was performed using GraphPad Prism (v5.03, GraphPad Software, Inc.).

Data set [6] deals with acute nociception (tail flick latency). Nature of the data set: Tail flick assay for acute nociception. The format is in vivo, mice. The following applies: IB-MECA, MRS1898 0.5 μmol/kg i.p. at 30, 60, 120 minutes; morphine 35 μmol/kg s.c. positive control. The protocol:
(§1) Tail flick and hot plate assay in mice for acute nociception. The tail flick test, which measures latency(s) of tail withdrawal from a noxious radiant heat source (Ugo Basile; model number 37360) was used to measure thermal nociceptive sensitivity in mice with baseline latencies of 3-5 seconds and a cut-off time of 15 seconds to prevent tissue injury. Tail flick latencies were taken before and at 30, 60 and 120 minutes after i.p. injection of IB-MECA, MRS1898 (0.5 μmol/kg) or its vehicle (0.1% DMSO in saline). For the hot plate test, nociceptive thresholds were determined as previously reported by our group by measuring latencies (in seconds) of mice placed in a transparent glass cylinder on a hot plate maintained at 52° C.. Responses indicative of nociception included intermittent lifting and/or licking of the hindpaws or escape behavior. Hot plate latencies were taken in mice from all groups before and after drug administration. A cut-off latency of 15 seconds was employed to prevent tissue damage.
On the technique in general: Thermal pain tests record how soon the animal reacts.

Data set [7] has as its system acute nociception (hot plate latency). Nature of the data set: Hot plate assay for acute nociception. The format is in vivo, mice. The settings on record: 0.5 μmol/kg. The protocol: as §1
Data set [8] concerns SKBR3 breast cancer cells. Nature of the data set: MTT cell survival assay, SKBR3. In kind it is cell-based, human. The settings on record: 48 hours, MTT, SKBR3. Here is the method: Cells were cultured and assayed in DMEM (SKBR3; human breast cancer cells), L15 (SW480; human colon cancer cells) or RPMI […] (RPMI 8226; human multiple myeloma cells) supplemented with heat-denatured 10% FBS and penicillin/streptomycin at 37° C., 0% (SW480) or 5% CO2 (SKBR3 and RPMI 8226), 95% humidity. The antitumor activities of these agents were measured in cells (6.25×10^4 cells/well) cultured overnight in 24-well plates (SKBR3 and SW480; BD Biosciences) or 12 mm×7.5 mm culture tubes (RPMI 8226; BD Biosciences) in complete media. […] Two naïve control wells were included as a control for 100% survival. Cell survival was determined using a MTT (3-(4,5-dimethylthiazol-2-yl)-2,5-diphenyltetrazolium bromide) assay adapted from a previously described assay. Cells were incubated with MTT (500 μg/ml) for 75 minutes at 37° C., 0% or 5% CO2, 95% humidity, removing the media and dissolving the tetrazolium crystals in isopropanol. […] The antitumor effects of IB-MECA alone were determined as % Survivability=(A560-570 nm of chemotherapeutic vehicle+IB-MECA)/(mean A560-570 nm of the naïve control wells)×100. The LD50 of each chemotherapeutic agent+IB-MECA or its vehicle was calculated using three-parameter non-linear analysis using % Survivability=(A560-570 nm of chemotherapeutic+IB-MECA or its vehicle)/(mean A560-570 nm chemotherapeutic vehicle+vehicle of IB-MECA)×100. The top and bottom plateaus were constrained using GraphPad Prism v5.03 (GraphPad Software, Inc.).

[9] abbreviates: co-administered IB-MECA 0.2 μmol/kg, D7.

`CC(C)C[C@H](NC(=O)[C@H](Cc1ccccc1)NC(=O)c1cnccn1)B(O)O` [Bortezomib] returned an LD50 in data set [1] of 27 nM. Besides, the “incidence of CIPN” value in data set [2] is reported as 36-55%.

Turning to `CCCOC(=O)c1c(-c2ccccc2)nc(CC)c(C(=O)SCC)c1CCC` [MRS1523, 3-propyl-6-ethyl-5[(ethylthio)carbonyl]-2-phenyl-4-propyl-3-pyridine-carboxylate], the “effect on PWT when administered alone (vehicle groups)” value in data set [3] (IB-MECA 0.2 μmol/kg/d in any of the chemotherapy models, MRS1523 5 μmol/kg/d) is listed as “lacked effect”. For the same molecule, the “effect of co-administered antagonist on the effects of IB-MECA” value in data set [3] (MRS1523 5 μmol/kg/d with IB-MECA 0.2 μmol/kg/d) is given as “prevented”. For the same molecule, in data set [4], the “selectivity against A1AR” value was “moderate selectivity”; the “selectivity against A2AAR and A2BAR” value was “at least 1000 fold”. Further, the “binding to A3ARs” value in data set [4] (murine and rat) was “high affinity”. In data set [5] (15 min before CI-IB-MECA 0.6 or MRS1898 0.5 μmol/kg, DPCPX and SCH-442416 with MRS1898 only), the “effect of antagonist pretreatment on anti-allodynic effect of CI-IB-MECA or MRS1898” value is reported as “blocked”. In addition, the “effect of antagonist pretreatment on anti-allodynic effect of IB-MECA” value in data set [5] (15 min before IB-MECA 0.5 μmol/kg, MRS1523 5, DPCPX 2, SCH-442416 0.2 μmol/kg) is “prevented”. The “effect of antagonist given alone on ipsilateral or contralateral PWT” value in data set [5] (D7, MRS1523 5, DPCPX 2, SCH-442416 0.2, naloxone 25 μmol/kg) is reported as “lacked effect”.

Regarding `CNC(=O)[C@]12C[C@@H]1[C@@H](n1cnc3c(NCc4cccc(I)c4)nc(Cl)nc31)[C@H](O)[C@@H]2O` [MRS1898, (1′R,2′R,3′S,4′R,5′S)-4-{2-chloro-6-[(3-iodophenylmethyl)amino]purin-9-yl}-1-(methylaminocarbonyl)-bicyclo[3.1.0]hexane-2,3-diol], the “effect on paclitaxel-induced neuropathic pain” value in data set [3] (0.2 μmol/kg/d (not shown)) is listed as “completely blocked”. Besides, the “effect on tail flick latency” value in data set [6] is “lacked effect”. Moreover, in data set [7], the “effect on the hot plate” value is on record as “had no effect”. The “effect on PWT in contralateral paws” value in data set [5] (D7 after CCI, drug alone) was “had no effect”. For the same molecule, the “reversal of mechano-allodynia in ipsilateral paws” value in data set [5] is reported as “reversed mechano-allodynia”.

In turn, `CC(=O)O[C@H]1C(=O)[C@@]2(C)[C@H]([C@H](OC(=O)c3ccccc3)[C@]3(O)C[C@H](OC(=O)[C@H](O)[C@@H](NC(=O)c4ccccc4)c4ccccc4)C(C)=C1C3(C)C)[C@]1(OC(C)=O)CO[C@@H]1C[C@@H]2O` [Paclitaxel] showed an LD50 in data set [8] of 7.0 nM.

Consider `CN1CC[C@]23c4c5ccc(O)c4O[C@H]2[C@@H](O)C=C[C@H]3[C@H]1C5` [morphine], for which the “effect on tail flick latency” value in data set [6] was “significant (P<0.001) increase in tail flick latencies”. Also, the “efficacy of IB-MECA compared with this drug” value in data set [5] (D7, time of peak reversal (FIG. 7)) was “more efficacious”. Moreover, in data set [5] (D7 after CCI, drug alone), the “effect on PWT in contralateral paws” value is “not in contralateral paws”. The ED50 (usually the dose at which the effect has come halfway, by size or by number of responders) in data set [5] (Mus musculus, read-out: ED50, reversal of mechano-allodynia) turned out to be 2.1 µmol/kg. Moreover, the “time of maximal reversal of mechano-allodynia” value in data set [5] (after single administration on D7) amounted to 0.5 h. In addition, in data set [5] (setting [9]), the “enhancement of efficacy by IB-MECA” value came to 1.6 fold and the “increase of potency by IB-MECA” value was more than 2 fold. Further, in data set [5] (mice, D7 after CCI, drug alone), the “Emax, reversal of mechano-allodynia” value is listed as 62±3%. Moreover, in data set [5] (mice, D7 after CCI, co-administered with IB-MECA 0.2 μmol/kg), the median effective dose (ED50) at peak reversal of mechano-allodynia when combined with IB-MECA is 0.98 µmol/kg. For the same molecule, the “fold less potent than IB-MECA in reversing mechano-allodynia” value in data set [5] (ratio of ED50 values, D7, time of peak reversal) is > 5 fold and 5 fold. Further, in data set [5], the “reversal of mechano-allodynia in ipsilateral paws” value is “dose-dependent reversal of mechano-allodynia”.

Source of the values: US9132131B2, “Use of adenosine A3 receptor agonists for treatment of neuropathic pain” (Saint Louis University, priority 2011, dated 2015).
